Source: patent US20180235936A1, “CANCER TREATMENT METHODS” (University of Notre Dame du Lac, priority 2017, published 2018)
Entries after “also recorded” stand apart in the source; their conditions may differ.

What was measured:
[1] = test system: pancreatic cancer-associated fibroblasts (CAF1); assay: Exosome release from CAF1s treated with GW4869, exosomes dyed with CFSE and quantified; format: cell-based, human; conditions: CAFs; FIG. 8B / FIG. 12
Protocol: (§1) (FIG. 8A) AsPC1 cells were grown for 5 days in AsPC1-conditioned media (AsPC1/AsPC1), CAF1-conditioned media (CAF1/AsPC1) or CAF1-conditioned media depleted of exosomes (CAF1-ED/AsPC1) and then treated with 111M GEM for 3 days and live cells were counted. (FIG. 8B) CAF1s were treated with 20 gm GW4869 or DMSO along with 111M gemcitabine or PBS for 3 days. Exosomes in media were collected, dyed with CFSE, and quantified. (FIG. 8C) AsPC1 cells were co-cultured with AsPC1 cells, CAFs, GW4869-treated CAF1s, DMEM alone (Blank/AsPC1), or GW4869 in DMEM (Blank+GW4869) for 6 days then treated during co-culture with 111M gemcitabine for 3 days. Live co-cultured AsPC1 cells at the bottom of the plate were counted. (FIG. 8D) Snai1 expression was measured via RT-PCR in AsPC1 cells co-cultured with untreated CAFs (CAF-NT/AsPC1) or GW4869-treated CAFs (CAF-GW/AsPC1). (FIG. 8E) L3.6 cells were cultured in CAF1-conditioned (CAF1/L3.6) media or CAF1-conditioned media depleted of exosomes (CAF1-ED/L3.6). miR146a expression was measured via RT-PCR. **p-value<0.01.

[2] = test system: pancreatic epithelial cancer cells (AsPC1) co-cultured with CAFs; assay: Co-culture of pancreatic epithelial cancer cells with GW4869-treated CAFs, then gemcitabine; live cell count; format: cell-based, human; conditions: GW4869-treated CAFs (20 μM), gemcitabine for three days during co-culture
Protocol: as §1
The bottom co-cultured epithelial cells were then treated with gemcitabine for three days during co-culture. Live co-cultured epithelial cells at the bottom of the plate were quantified using an automated cell counter. *p-value<0.05; **p-value <0.01. NS (not significant).

[3] = test system: Snai1 mRNA; assay: Snai1 expression by RT-PCR in AsPC1 cells co-cultured with GW4869-treated CAFs; format: cell-based, human; conditions: exosome secretion from PCAFs inhibited by GW4869
Protocol: as §1

[4] = test system: microRNA-92a; assay: microRNA-92a expression by RT-PCR in AsPC1 cells co-cultured with GW4869-treated CAFs; format: cell-based, human; conditions: PCAFs treated with GW4869 vs DMSO
Source text: FIG. 17A illustrates a graph of the results from pancreatic cancer epithelial cells (AsPC1) grown in PCAF-conditioned media; the cells expressed higher levels of microRNA-92a compared to control media, as established via RTPCR.

[5] = test system: AsPC1 cells and CAF1 cells tumors; assay: Subcutaneous AsPC1 + CAF1 tumor growth in NOD/SCID mice; format: in vivo; conditions: intraperitoneally twice weekly for two weeks
Protocol: FIGS. 10A-B illustrate graphs of NOD/SCID mice that were subcutaneously implanted with one million AsPC1 cells and 200,000 CAF1 cells. Two weeks post implantation mice were treated intraperitoneally with DMSO+PBS, DMSO+gemcitabine (GEM), or PBS+GW4869 twice weekly for two weeks. (FIG. 10A) Tumor growth over the course of the ten-day post drug treatment. (FIG. 10B) Change in tumor volume from first day of drug treatment to 10 days post initial drug treatment. *p-value<0.05. NS (not significant).
Additionally, it should be appreciated that dosages can be determined as described herein. In one embodiment, the dosage of pharmaceutical composition depends on the drug itself, its efficacy, and its toxicity. As an exemplary embodiment, 2-2.5 gg GW4869 per gram mouse body weight can be intraperitoneally injected into mice twice weekly for two weeks to achieve therapeutic results.

[6] = test system: pancreatic cancer epithelial cells; assay: Direct GW4869 treatment of pancreatic cancer epithelial cells followed by gemcitabine; percent live cells (trypan blue); format: cell-based, human; set-up: dose or concentration left out as unconfirmed; conditions: GW4869 for one day then gemcitabine for three days; vs DMSO
Source text: FIG. 19 illustrates a graph of the results from pancreatic cancer epithelial cells being treated with DMSO as a control or 2011M GW4869 for one day then treated with gemcitabine for three days. Live and dead cells were quantified using an automated cell counter and trypan blue staining. Percent live cells was quantified.

[7] = test system: pancreatic cancer epithelial cells; assay: Scratch migration assay of pancreatic cancer epithelial cells; format: cell-based, human; set-up: dose or concentration left out as unconfirmed; conditions: GW4869, serum-free media, three days; vs DMSO
Source text: FIG. 20 illustrates a graph of the results from pancreatic cancer epithelial cells being grown to full confluency and placed in serum-free media to prevent cell proliferation. A scratch was made down to center of the plate to create a cell free zone for migration. Cells were then given DMSO as a control or 2011M GW4869. Images were taken each day for three days and distance of cell migration was quantified using ImageJ.

[8] = test system: pancreatic cancer-associated fibroblasts (CAF1); assay: Exosome secretion from cells during chemotherapy treatment, exosomes isolated from conditioned media and quantified; format: cell-based, human; conditions: most prominently from PCAFs; 4 days treatment; vs untreated
Protocol: (FIG. 4A) CAF1s were left untreated (NT) or treated with 111M gem (GT) for 4 days. Exosomes were isolated from conditioned cell media, and protein lysates were used to perform a western blot for CD81 and beta-actin (left). Isolated exosomes were examined for size and structure via transmission electron microscopy (right). (FIG. 4B) CAF1 cells transduced with a GFP-CD63 lentivirus (GFP-CD63-CAF1s) were treated with luM gemcitabine (GT) or left untreated (NT) and fluorescence was analyzed via microscopy. (FIG. 4C) Total corrected cell fluorescence of GFP-CD63-CAF1 cells was quantified using ImageJ. (FIG. 4D) Cells were treated with 11.1M gemcitabine (Fibroblasts and PANC1), 10 nM gemcitabine (L3.6), or left untreated for 4 days (NT), and exosomes were collected and quantified. Scale bar, 200 Em. *pvalue<0.05; **p-value<0.01.
FIG. 5 illustrates a graph of fold change in exosome secretion per cell. CAF1 cells were plated at 500,000 cells/flask and left untreated (control), treated with 111M gemcitabine, or 10 nM Nab-Paclitaxel for 4 days. Live cells were counted. Exosomes were isolated from conditioned-media and quantified. *p-value<0.05;**p-value<0.01.

[9] = test system: PTEN; assay: PTEN expression by RT-PCR in tumors extracted from treated NOD/SCID mice; format: in vivo; conditions: intraperitoneally twice weekly for two weeks; compared to control
Protocol: FIG. 16 illustrates a graph of the results from NOD/SCID mice being subcutaneously implanted with one million AsPC1 cells and 200,000 CAF1 cells. Two weeks post implantation mice were treated intraperitoneally with DMSO+PBS, DMSO+gemcitabine, PBS+GW4869, or gemcitabine+GW4869 twice weekly for two weeks. Tumors were extracted for RNA and PTEN expression within tumor samples was quantified via RT-PCR.

[10] = test system: PCAF extracellular vesicle microRNAs; assay: MicroRNA-Seq of extracellular vesicles from gemcitabine-treated versus PBS-treated PCAFs; format: cell-based, human; conditions: normalized to total RNA
Source text: While Snai1 and miR-146a may play an important role in promoting chemoresistance of PECCs, other potential mechanisms exist in which PCAF exosomes may increase chemoresistance. For example, by treating PCAFs with PBS as a control or gemcitabine, collecting their secreted extracellular vesicles, lysing them, collecting the microRNA within, and quantifying the microRNAs, the role of microRNAs is made clearer. […] [table]

[11] = test system: Snai1 and miR-146a; assay: RT-PCR of Snai1 and miR-146a in CAF1s and CAF1 exosomes during gemcitabine treatment; format: cell-based, human
Protocol: (FIG. 11A) RT-PCR. miR-146a and Snai1 levels were altered in CAF1s during 1 μM GEM treatment (GT) (3 days) compared to untreated control (NT). (FIG. 11B) RT-PCR. CAF1s were treated with Snai1-siRNA, and Snai1 and miR-146a expression was measured compared to negative siRNA control treated CAFs. (FIG. 11C) Exosomes from untreated and 1 μM GEM-treated CAF1s were isolated and Snai1 mRNA and miR-146a within CAF1 exosomes was quantified via RT-PCR using relative Ct values. (FIG. 11D-E) L3.6 cells were treated with GT-CAF1 exosomes for 6 days (GTCAF1/L3.6) or left untreated (L3.6 control). AsPC1 cells were treated with GT-CAF1 exosomes for 6 days (GT-CAF1/AsPC1) or left untreated (AsPC1 control). Snai1 (FIG. 11D) and miR-146a (FIG. 11E) levels were quantified in recipient cells via RT-PCR. *p-value<0.05; **p-value<0.01.

[12] = test system: pancreatic ductal adenocarcinoma (PDAC); conditions: adjuvant gemcitabine, observed cohort; cited from earlier work
[13] = 1 μM GEM treatment (3 days) vs untreated

## O=C(/C=C/c1ccc(/C=C/C(=O)Nc2ccc(C3=NCCN3)cc2)cc1)Nc1ccc(C2=NCCN2)cc1 [GW4869]
[1]
  exosome release: suppresses exosome release
[2]
  chemoresistance of co-cultured PECCs: reduced the chemoresistance
[3]
  cellular level of Snai1 mRNA within co-cultured PECCs: decreased
[4]
  expression of miR-92a within co-cultured PECCs: reduced expression; also recorded: decreased
[5]
  tumor growth: reduced tumor growth
[6]
  chemoresistance of PECCs treated directly: reduced chemoresistance
[7]
  cell migration of PECCs: reduced cell migration

## Nc1ccn([C@@H]2O[C@H](CO)[C@@H](O)C2(F)F)c(=O)n1 [gemcitabine]
[8]
  secretion of exosomes from cells: increases secretion of exosomes
[9]
  PTEN expression within the tumors: decreased
[10]
  Fold Change (GEM vs. NT) of hsa-m1R-221-3p in extracellular vesicles: 4.325
  Fold Change (GEM vs. NT) of hsa-miR-21-5p in extracellular vesicles: 2.531
  Fold Change (GEM vs. NT) of hsa-miR-92a-3p in extracellular vesicles: 4.66
  Fold Change (GEM vs. NT) of hsa-miR-181a-5p in extracellular vesicles: 3.509
  Fold Change (GEM vs. NT) of hsa-miR-222-3p in extracellular vesicles: 2.649
[11]; [13]
  Snai1 level in CAFs: upregulation
  miR-146a level in CAFs: upregulation
[11]; 1 μM GEM-treated vs untreated
  level of Snai1 mRNA in exosomes secreted from PCAFs: higher
  level of miR-146a in exosomes secreted from PCAFs: higher
[12]
  patients eventually showing tumor recurrence: 74%
